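Cultured in 96-well plates, cells were exposed to test compound for 48 hours across five concentrations. TGI: total growth inhibition.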
Columns and labels:
Test in all cases: growth of human tumour cells (NCI), 48 h
SNB-75 CNS = test system: SNB-75 CNS
NCI-H226 lung = test system: NCI-H226 lung
SNB-78 CNS = test system: SNB-78 CNS
OVCAR-5 ovarian = test system: OVCAR-5 ovarian
SF-295 CNS = test system: SF-295 CNS
MALME-3M melanoma = test system: MALME-3M melanoma
K-562 leukemia = test system: K-562 leukemia
HCT-15 colon = test system: HCT-15 colon
EKVX NSCLC = test system: EKVX NSCLC
LOX IMVI melanoma = test system: LOX IMVI melanoma
OVCAR-3 ovarian = test system: OVCAR-3 ovarian
OVCAR-4 ovarian = test system: OVCAR-4 ovarian
M19-MEL melanoma = test system: M19-MEL melanoma
MOLT-4 leukemia = test system: MOLT-4 leukemia
OVCAR-8 ovarian = test system: OVCAR-8 ovarian
DMS 114 small cell lung = test system: DMS 114 small cell lung
RPMI-8226 leukemia = test system: RPMI-8226 leukemia
A549 NSCLC = test system: A549 NSCLC
U251 CNS = test system: U251 CNS
UO-31 renal = test system: UO-31 renal
HOP-62 NSCLC = test system: HOP-62 NSCLC
CAKI-1 renal = test system: CAKI-1 renal
A498 renal = test system: A498 renal
786-0 renal = test system: 786-0 renal
HCT-116 colon = test system: HCT-116 colon
KM20L2 colon = test system: KM20L2 colon
SK-MEL-28 melanoma = test system: SK-MEL-28 melanoma
M14 melanoma = test system: M14 melanoma
RXF 393 renal = test system: RXF 393 renal
SF-539 CNS = test system: SF-539 CNS
CCRF-CEM leukemia = test system: CCRF-CEM leukemia
UACC-62 melanoma = test system: UACC-62 melanoma
SK-MEL-5 melanoma = test system: SK-MEL-5 melanoma
HOP-92 NSCLC = test system: HOP-92 NSCLC
HOP-18 NSCLC = test system: HOP-18 NSCLC
SF-268 CNS = test system: SF-268 CNS
SNB-19 CNS = test system: SNB-19 CNS
UACC-257 melanoma = test system: UACC-257 melanoma
NCI-H460 lung = test system: NCI-H460 lung
HL-60(TB) leukemia = test system: HL-60(TB) leukemia
ACHN renal = test system: ACHN renal
SK-MEL-2 melanoma = test system: SK-MEL-2 melanoma
TK-10 renal = test system: TK-10 renal
DLD-1 colon = test system: DLD-1 colon
DMS 273 small cell lung = test system: DMS 273 small cell lung
XF 498 CNS = test system: XF 498 CNS
LXFL 529 NSCLC = test system: LXFL 529 NSCLC
NCI-H23 lung = test system: NCI-H23 lung
SW-620 colon = test system: SW-620 colon
NCI-H522 lung = test system: NCI-H522 lung
HCC-2998 colon = test system: HCC-2998 colon
IGROV1 ovarian = test system: IGROV1 ovarian
KM12 colon = test system: KM12 colon
COLO 205 colon = test system: COLO 205 colon
HT29 colon = test system: HT29 colon
SK-OV-3 ovarian = test system: SK-OV-3 ovarian
SN12C renal = test system: SN12C renal
SR leukemia = test system: SR leukemia

Cc1c2nc3ccccc3sc-2cc(=O)c1C
TGI (SNB-75 CNS): > 100 µM | TGI (NCI-H226 lung): > 100 µM | TGI (SNB-78 CNS): > 100 µM | TGI (OVCAR-5 ovarian): > 100 µM | TGI (SF-295 CNS): > 100 µM | TGI (MALME-3M melanoma): > 100 µM | TGI (K-562 leukemia): > 91.6 µM | TGI (HCT-15 colon): > 100 µM | TGI (EKVX NSCLC): > 100 µM | TGI (LOX IMVI melanoma): > 100 µM | TGI (OVCAR-3 ovarian): > 90.6 µM | TGI (OVCAR-4 ovarian): > 100 µM | TGI (M19-MEL melanoma): 29.7 µM | TGI (MOLT-4 leukemia): > 100 µM | TGI (OVCAR-8 ovarian): > 100 µM | TGI (DMS 114 small cell lung): 79.7 µM | TGI (RPMI-8226 leukemia): > 100 µM | TGI (A549 NSCLC): > 100 µM | TGI (U251 CNS): > 100 µM | TGI (UO-31 renal): > 100 µM | TGI (HOP-62 NSCLC): > 100 µM | TGI (CAKI-1 renal): > 100 µM | TGI (A498 renal): > 100 µM | TGI (786-0 renal): > 100 µM | TGI (HCT-116 colon): > 100 µM | TGI (KM20L2 colon): > 100 µM | TGI (SK-MEL-28 melanoma): > 100 µM | TGI (M14 melanoma): > 100 µM | TGI (RXF 393 renal): > 100 µM | TGI (SF-539 CNS): > 100 µM | TGI (CCRF-CEM leukemia): > 100 µM | TGI (UACC-62 melanoma): 70.3 µM | TGI (SK-MEL-5 melanoma): > 100 µM | TGI (HOP-92 NSCLC): > 100 µM | TGI (HOP-18 NSCLC): > 100 µM | TGI (SF-268 CNS): > 100 µM | TGI (SNB-19 CNS): > 100 µM | TGI (UACC-257 melanoma): > 46.8 µM | TGI (NCI-H460 lung): > 100 µM | TGI (HL-60(TB) leukemia): > 85.5 µM | TGI (ACHN renal): > 100 µM | TGI (SK-MEL-2 melanoma): > 25.2 µM | TGI (TK-10 renal): > 100 µM | TGI (DLD-1 colon): > 100 µM | TGI (DMS 273 small cell lung): > 100 µM | TGI (XF 498 CNS): > 100 µM | TGI (LXFL 529 NSCLC): > 100 µM | TGI (NCI-H23 lung): > 100 µM | TGI (SW-620 colon): > 100 µM | TGI (NCI-H522 lung): > 100 µM | TGI (HCC-2998 colon): > 100 µM | TGI (IGROV1 ovarian): > 100 µM | TGI (KM12 colon): > 100 µM | TGI (COLO 205 colon): > 89.2 µM | TGI (HT29 colon): > 100 µM | TGI (SK-OV-3 ovarian): > 100 µM

O=C(/C=C/c1cccc([N+](=O)[O-])c1)c1cccnc1
TGI (SN12C renal): > 62.9 µM | TGI (SNB-75 CNS): > 91.5 µM | TGI (NCI-H226 lung): > 100 µM | TGI (SR leukemia): 62.5 µM | TGI (SNB-78 CNS): > 94.2 µM | TGI (OVCAR-5 ovarian): > 100 µM | TGI (SF-295 CNS): > 100 µM | TGI (MALME-3M melanoma): > 100 µM | TGI (K-562 leukemia): > 78.5 µM | TGI (HCT-15 colon): > 100 µM | TGI (EKVX NSCLC): > 100 µM | TGI (LOX IMVI melanoma): 40.1 µM | TGI (OVCAR-3 ovarian): 68.8 µM | TGI (OVCAR-4 ovarian): > 100 µM | TGI (M19-MEL melanoma): > 67.9 µM | TGI (MOLT-4 leukemia): 63.5 µM | TGI (OVCAR-8 ovarian): > 100 µM | TGI (DMS 114 small cell lung): 52.9 µM | TGI (RPMI-8226 leukemia): 44.8 µM | TGI (A549 NSCLC): > 100 µM | TGI (U251 CNS): 56.1 µM | TGI (UO-31 renal): > 70.7 µM | TGI (HOP-62 NSCLC): > 100 µM | TGI (CAKI-1 renal): > 90.8 µM | TGI (A498 renal): > 62.9 µM | TGI (786-0 renal): 30.5 µM | TGI (HCT-116 colon): 33.3 µM | TGI (KM20L2 colon): > 67.8 µM | TGI (SK-MEL-28 melanoma): 60.8 µM | TGI (M14 melanoma): 19.6 µM | TGI (RXF 393 renal): 34.4 µM | TGI (SF-539 CNS): 48.3 µM | TGI (CCRF-CEM leukemia): 59.2 µM | TGI (UACC-62 melanoma): > 82.4 µM | TGI (SK-MEL-5 melanoma): 22.3 µM | TGI (HOP-92 NSCLC): > 100 µM | TGI (HOP-18 NSCLC): > 31.2 µM | TGI (SF-268 CNS): > 86.4 µM | TGI (SNB-19 CNS): > 94.7 µM | TGI (UACC-257 melanoma): 97.7 µM | TGI (NCI-H460 lung): > 100 µM | TGI (HL-60(TB) leukemia): 48.3 µM | TGI (ACHN renal): > 100 µM | TGI (SK-MEL-2 melanoma): > 100 µM | TGI (TK-10 renal): > 100 µM | TGI (DLD-1 colon): 52.2 µM | TGI (DMS 273 small cell lung): 69.6 µM | TGI (XF 498 CNS): > 81.1 µM | TGI (LXFL 529 NSCLC): 43 µM | TGI (NCI-H23 lung): 44.8 µM | TGI (SW-620 colon): 37.5 µM | TGI (NCI-H522 lung): 25.3 µM | TGI (HCC-2998 colon): > 66.1 µM | TGI (IGROV1 ovarian): 70.4 µM | TGI (KM12 colon): 43.3 µM | TGI (COLO 205 colon): > 87.1 µM | TGI (HT29 colon): 42.9 µM | TGI (SK-OV-3 ovarian): > 100 µM

CN1C(=O)N(C)C(N2CCCC2)c2c1nc1ccccn1c2=O (centres undefined)
TGI (SN12C renal): > 100 µM | TGI (SNB-75 CNS): > 100 µM | TGI (NCI-H226 lung): > 100 µM | TGI (SR leukemia): > 100 µM | TGI (SNB-78 CNS): > 100 µM | TGI (SF-295 CNS): > 100 µM | TGI (MALME-3M melanoma): > 100 µM | TGI (K-562 leukemia): > 100 µM | TGI (HCT-15 colon): > 100 µM | TGI (EKVX NSCLC): > 100 µM | TGI (LOX IMVI melanoma): > 100 µM | TGI (OVCAR-3 ovarian): > 100 µM | TGI (OVCAR-4 ovarian): > 100 µM | TGI (M19-MEL melanoma): > 100 µM | TGI (MOLT-4 leukemia): > 100 µM | TGI (OVCAR-8 ovarian): > 100 µM | TGI (DMS 114 small cell lung): > 100 µM | TGI (RPMI-8226 leukemia): > 100 µM | TGI (A549 NSCLC): > 100 µM | TGI (U251 CNS): > 100 µM | TGI (UO-31 renal): > 100 µM | TGI (HOP-62 NSCLC): > 100 µM | TGI (A498 renal): > 100 µM | TGI (786-0 renal): > 100 µM | TGI (HCT-116 colon): > 100 µM | TGI (KM20L2 colon): > 100 µM | TGI (SK-MEL-28 melanoma): > 100 µM | TGI (M14 melanoma): > 100 µM | TGI (RXF 393 renal): > 100 µM | TGI (SF-539 CNS): > 100 µM | TGI (CCRF-CEM leukemia): > 100 µM | TGI (UACC-62 melanoma): > 100 µM | TGI (HOP-92 NSCLC): > 100 µM | TGI (HOP-18 NSCLC): > 100 µM | TGI (SF-268 CNS): > 100 µM | TGI (SNB-19 CNS): > 100 µM | TGI (UACC-257 melanoma): > 100 µM | TGI (NCI-H460 lung): > 100 µM | TGI (HL-60(TB) leukemia): > 100 µM | TGI (ACHN renal): > 100 µM | TGI (SK-MEL-2 melanoma): > 100 µM | TGI (TK-10 renal): > 100 µM | TGI (DLD-1 colon): > 100 µM | TGI (DMS 273 small cell lung): > 100 µM | TGI (XF 498 CNS): > 100 µM | TGI (LXFL 529 NSCLC): > 100 µM | TGI (NCI-H23 lung): > 100 µM | TGI (SW-620 colon): > 100 µM | TGI (NCI-H522 lung): > 100 µM | TGI (HCC-2998 colon): > 100 µM | TGI (IGROV1 ovarian): > 100 µM | TGI (KM12 colon): > 100 µM | TGI (COLO 205 colon): > 100 µM | TGI (HT29 colon): > 100 µM | TGI (SK-OV-3 ovarian): > 100 µM

— PubChem BioAssay (NCI)
